Laboratory results published in patent US9487749B2 (priority 2009, dated 2016).

Experiments:
[1] = test system: Bifidobacterium bifidum ATCC #29521; experiment: Bifidobacterium bifidum growth in media fortified with MSM, 96 hours; assay type: cell-based
Bacillus coagulans = Bacillus coagulans growth in simulated gastric acid supplemented with MSM; assay type: cell-based; conditions: 5% MSM; hour 0; simulated gastric acid pH 1.2; average

## CS(C)(=O)=O [MSM, Methylsulfonylmethane]
[1]; 0.125% MSM, Hr 0
  Log Growth of Bifidobacteruim bifidum in Media Fortified with MSM: 1.12 log
[1]; 0.125% MSM, Hr 8
  Log Growth of Bifidobacteruim bifidum in Media Fortified with MSM: 2.89 log
[1]; 0.125% MSM, Hr 16
  Log Growth of Bifidobacteruim bifidum in Media Fortified with MSM: 7.85 log
[1]; 0.125% MSM, Hr 24
  Log Growth of Bifidobacteruim bifidum in Media Fortified with MSM: 9.06 log
[1]; 0.125% MSM, Hr 32
  Log Growth of Bifidobacteruim bifidum in Media Fortified with MSM: 11.45 log
[1]; 0.125% MSM, Hr 40
  Log Growth of Bifidobacteruim bifidum in Media Fortified with MSM: 10.80 log
[1]; 0.125% MSM, Hr 48
  Log Growth of Bifidobacteruim bifidum in Media Fortified with MSM: 8.22 log
[1]; 0.125% MSM, Hr 56
  Log Growth of Bifidobacteruim bifidum in Media Fortified with MSM: 7.25 log
[1]; 0.125% MSM, Hr 64
  Log Growth of Bifidobacteruim bifidum in Media Fortified with MSM: 8.86 log
[1]; 0.125% MSM, Hr 72
  Log Growth of Bifidobacteruim bifidum in Media Fortified with MSM: 6.59 log
[1]; 0.125% MSM, Hr 80
  Log Growth of Bifidobacteruim bifidum in Media Fortified with MSM: 9.12 log
[1]; 0.125% MSM, Hr 88
  Log Growth of Bifidobacteruim bifidum in Media Fortified with MSM: 9.12 log
[1]; 0.125% MSM, Hr 96
  Log Growth of Bifidobacteruim bifidum in Media Fortified with MSM: <6.00 log
[1]; 0.5% MSM
  logs higher than the maximum of the control: 0.5 logs
[1]; 0.5% MSM, hour 96
  logs higher than the control: approximately 2 logs
  logs of growth: 8.82 logs
[1]; 0.5% MSM, Hr 0
  Log Growth of Bifidobacteruim bifidum in Media Fortified with MSM: 1.00 log
[1]; 0.5% MSM, Hr 8
  Log Growth of Bifidobacteruim bifidum in Media Fortified with MSM: 2.84 log
[1]; 0.5% MSM, Hr 16
  Log Growth of Bifidobacteruim bifidum in Media Fortified with MSM: 7.45 log
[1]; 0.5% MSM, Hr 24
  Log Growth of Bifidobacteruim bifidum in Media Fortified with MSM: 8.81 log
[1]; 0.5% MSM, Hr 32
  Log Growth of Bifidobacteruim bifidum in Media Fortified with MSM: 11.22 log
[1]; 0.5% MSM, Hr 40
  Log Growth of Bifidobacteruim bifidum in Media Fortified with MSM: 12.09 log
[1]; 0.5% MSM, Hr 48
  Log Growth of Bifidobacteruim bifidum in Media Fortified with MSM: 9.39 log
[1]; 0.5% MSM, Hr 56
  Log Growth of Bifidobacteruim bifidum in Media Fortified with MSM: 9.51 log
[1]; 0.5% MSM, Hr 64
  Log Growth of Bifidobacteruim bifidum in Media Fortified with MSM: 10.34 log
[1]; 0.5% MSM, Hr 72
  Log Growth of Bifidobacteruim bifidum in Media Fortified with MSM: 8.35 log
[1]; 0.5% MSM, Hr 80
  Log Growth of Bifidobacteruim bifidum in Media Fortified with MSM: 10.38 log
[1]; 0.5% MSM, Hr 88
  Log Growth of Bifidobacteruim bifidum in Media Fortified with MSM: 9.70 log
[1]; 0.5% MSM, Hr 96
  Log Growth of Bifidobacteruim bifidum in Media Fortified with MSM: 8.82 log
[1]; 1% MSM, Hour 96
  logs of growth (estimated, outside the countable range): less than 6 logs
[1]; 1% MSM, Hr 0
  Log Growth of Bifidobacteruim bifidum in Media Fortified with MSM: 1.00 log
[1]; 1% MSM, Hr 8
  Log Growth of Bifidobacteruim bifidum in Media Fortified with MSM: 2.73 log
[1]; 1% MSM, Hr 16
  Log Growth of Bifidobacteruim bifidum in Media Fortified with MSM: 7.73 log
[1]; 1% MSM, Hr 24
  Log Growth of Bifidobacteruim bifidum in Media Fortified with MSM: 8.81 log
[1]; 1% MSM, Hr 32
  Log Growth of Bifidobacteruim bifidum in Media Fortified with MSM: 11.49 log
[1]; 1% MSM, Hr 40
  Log Growth of Bifidobacteruim bifidum in Media Fortified with MSM: 11.19 log
[1]; 1% MSM, Hr 48
  Log Growth of Bifidobacteruim bifidum in Media Fortified with MSM: 10.43 log
[1]; 1% MSM, Hr 56
  Log Growth of Bifidobacteruim bifidum in Media Fortified with MSM: 10.57 log
[1]; 1% MSM, Hr 64
  Log Growth of Bifidobacteruim bifidum in Media Fortified with MSM: 10.66 log
[1]; 1% MSM, Hr 72
  Log Growth of Bifidobacteruim bifidum in Media Fortified with MSM: 8.34 log
[1]; 1% MSM, Hr 80
  Log Growth of Bifidobacteruim bifidum in Media Fortified with MSM: 9.43 log
[1]; 1% MSM, Hr 88
  Log Growth of Bifidobacteruim bifidum in Media Fortified with MSM: 10.41 log
[1]; 1% MSM, Hr 96
  Log Growth of Bifidobacteruim bifidum in Media Fortified with MSM: <6.00 log
[1]; 1% MSM, listed as order: Hour 80, Hour 88
  log increase of growth: 1 log
[1]; 5% MSM
  extension of the stationary phase: 40 h
[1]; 5% MSM, Hour 48
  logs lower than the control: 0.7 logs
[1]; 5% MSM, Hr 0
  Log Growth of Bifidobacteruim bifidum in Media Fortified with MSM: 1.12 log
[1]; 5% MSM, Hr 8
  Log Growth of Bifidobacteruim bifidum in Media Fortified with MSM: 2.04 log
[1]; 5% MSM, Hr 16
  Log Growth of Bifidobacteruim bifidum in Media Fortified with MSM: 6.10 log
[1]; 5% MSM, Hr 24
  Log Growth of Bifidobacteruim bifidum in Media Fortified with MSM: 8.43 log
[1]; 5% MSM, Hr 32
  Log Growth of Bifidobacteruim bifidum in Media Fortified with MSM: 11.13 log
[1]; 5% MSM, Hr 40
  Log Growth of Bifidobacteruim bifidum in Media Fortified with MSM: 11.78 log
[1]; 5% MSM, Hr 48
  Log Growth of Bifidobacteruim bifidum in Media Fortified with MSM: 10.70 log
[1]; 5% MSM, Hr 56
  Log Growth of Bifidobacteruim bifidum in Media Fortified with MSM: 10.59 log
[1]; 5% MSM, Hr 64
  Log Growth of Bifidobacteruim bifidum in Media Fortified with MSM: 14.32 log
[1]; 5% MSM, Hr 72
  Log Growth of Bifidobacteruim bifidum in Media Fortified with MSM: 8.65 log
[1]; 5% MSM, Hr 80
  Log Growth of Bifidobacteruim bifidum in Media Fortified with MSM: 12.20 log
[1]; 5% MSM, Hr 88
  Log Growth of Bifidobacteruim bifidum in Media Fortified with MSM: 12.31 log
[1]; 5% MSM, Hr 96
  Log Growth of Bifidobacteruim bifidum in Media Fortified with MSM: 9.60 log
[1]; […] MSM, Hour 88
  log increase of growth: 1 log
[1]; […] MSM, maximum
  logs higher than the maximum of the control: 0.72 logs
[1]; […] MSM, Hr 96
  Log Growth of Bifidobacteruim bifidum in Media Fortified with MSM: <6.00 log
[1]; […] MSM, listed as order: hour 40, Hour 56 to hour 72
  logs higher in growth rate compared to the control: 0.7 logs
[1]; all MSM concentrations (hour 32 vs hour 48)
  maximum growth reached before the control: 16 h
Bacillus coagulans
  Log Growth of Bacillus coagulans average: 0.26 log
